For this test, the system named is rabbit normal intraocular pressure. Briefly: Intraocular pressure reducing action. Format: in vivo, Japanese white rabbit. Particulars: Oryctolagus cuniculus, topical; 3 mM aqueous solution, 50 μl to the left eye; max IOP reduction (2, 4, 6 hours) / value immediately before administration; read-out: intraocular pressure reducing degree. As to the method:
A Japanese white rabbit having a body weight of about 2 kg was placed in a positioner and naturalized for one week before the experiment. An opthalmologic local anesthesant (Benoxil) was administered to both eyes, and then intraocular pressure was measured by using a tonometer (Classic 30, Solan). A 3 mM aqueous solution of a test compound was administered in a volume of 50 μl to the left eye, and the right eye was not treated (control eye). The intraocular pressure values were measured for the left and right eyes immediately before, and 2, 4 and 6 hours after the administration of the aqueous solution of the test compound, and the difference of the measured values for the left and right eyes was considered an intraocular pressure reduction value of the test medicament at each measurement time. The largest difference of the values for the left and right eyes among the measured values at the measurement times (after 2, 4 and 6 hours) was considered the maximum intraocular pressure reduction value (max ? IOP) of each test medicament. The intraocular pressure reducing degree representing the intraocular pressure reducing action of each test medicament was calculated according to the following formula. Since rabbits show significant daily variation of intraocular pressure, daily variation is added when change of intraocular pressure is measured over time, and the intraocular pressure reducing action may be overestimated. Therefore, we used this calculation method of intraocular pressure reduction value in order to minimize the influence of the variation. Intraocular pressure reducing degree(%)=(max ? IOP/Intraocular pressure value immediately before administration)×100

This is an account of results in patent US7964613B2 (Asahi Kasei Pharma Corporation, priority 2007, dated 2011).

For `O=C(CN1CCCC1=O)N[C@H]1CCN(S(=O)(=O)c2cccc3cncc(Cl)c23)C1` [Example 87, (S)-3-[2-(2-Oxopyrrolidin-1-yl)acetyl]amino-1-(4-chloro-5-isoquinolinesulfonyl)pyrrolidine], the inhibition in vivo at 3000 µM was 10 to 20%. For `O=C(CN1CCNCC1)N[C@H]1CCN(S(=O)(=O)c2cccc3cncc(Cl)c23)C1` [Example 91, (S)-3-[2-(piperazin-1-yl)acetyl]amino-1-(4-chloro-5-isoquinolinesulfonyl)pyrrolidine], the inhibition in vivo at 3000 µM lay in the range of 10 to 20%. On to `CN(C)CC(=O)N(C)[C@H]1CCN(S(=O)(=O)c2cccc3cncc(Cl)c23)C1` [Example 66-1, (S)-3-[N-(2-Dimethylamino)acetyl-N-methyl]amino-1-(4-chloro-5-isoquinolinesulfonyl)pyrrolidine], for which the inhibition in vivo at 3000 µM lay in the range of 5 to 10%. For `O=C(CN1CCN(CCO)CC1)N[C@H]1CCN(S(=O)(=O)c2cccc3cncc(Cl)c23)C1` [Example 92, (S)-3-[2-[4-(2-Hydroxyethyl)piperazin-1-yl]acetyl]amino-1-(4-chloro-5-isoquinolinesulfonyl)pyrrolidine], the inhibition in vivo at 3000 µM lay in the range of 10 to 20%. With `COCCOCC(=O)N[C@H]1CCN(S(=O)(=O)c2cccc3cncc(Cl)c23)C1` [Example 98, (S)-3-[2-(2-Methoxyethoxy)acetyl]amino-1-(4-chloro-5-isoquinolinesulfonyl)pyrrolidine], the inhibition in vivo at 3000 µM is not below 20%.

For `CN1CCN(CC(=O)N[C@H]2CCN(S(=O)(=O)c3cccc4cncc(Cl)c34)C2)CC1` [Example 89, (S)-3-[2-(4-Methylpiperazin-1-yl)acetyl]amino-1-(4-chloro-5-isoquinolinesulfonyl)pyrrolidine], the inhibition in vivo at 3000 µM is 5 to 10%. With `COCCC(=O)N[C@H]1CCN(S(=O)(=O)c2cccc3cncc(Cl)c23)C1` [Example 77, (S)-3-(3-Methoxypropionyl)amino-1-(4-chloro-5-isoquinolinesulfonyl)pyrrolidine], the inhibition in vivo at 3000 µM was not below 20%. Turning to `COCC(=O)N(C)[C@H]1CCN(S(=O)(=O)c2cccc3cncc(Cl)c23)C1` [Example 67-1, (S)-3-[N-(2-Methoxyacetyl)-N-methyl]amino-1-(4-chloro-5-isoquinolinesulfonyl)pyrrolidine], the inhibition in vivo at 3000 µM fell in the range of 10 to 20%.

`O=C(CCOc1ccccc1)N[C@H]1CCN(S(=O)(=O)c2cccc3cncc(Cl)c23)C1` [Example 76, (S)-3-(3-Phenoxypropionyl)amino-1-(4-chloro-5-isoquinolinesulfonyl)pyrrolidine]: the inhibition in vivo at 3000 µM fell in the range of 10 to 20%. Consider `CN(C)CC(=O)N[C@H]1CCN(S(=O)(=O)c2cccc3cncc(Br)c23)C1` [Example 73, (S)-3-[(2-Dimethylamino)acetyl]amino-1-(4-bromo-5-isoquinolinesulfonyl)pyrrolidine], for which the inhibition in vivo at 3000 µM lay within 10 to 20%. `N[C@H]1CCN(S(=O)(=O)c2cccc3cncc(-c4cnoc4)c23)C1` [Example 24-1, (S)-3-Amino-1-[4-(4-isoxazolyl)-5-isoquinolinesulfonyl]pyrrolidine]: the inhibition in vivo at 3000 µM lay in the range of 5 to 10%. For `N#CCC(=O)N[C@H]1CCN(S(=O)(=O)c2cccc3cncc(Cl)c23)C1` [Example 90, (S)-3-(2-Cyanoacetyl)amino-1-(4-chloro-5-isoquinolinesulfonyl)pyrrolidine], the inhibition in vivo at 3000 µM fell in the range of 10 to 20%. `NCC1CCCCN1S(=O)(=O)c1cccc2cncc(Cl)c12` (centres unmarked) [Example 61, 2-(Aminomethyl)-1-(4-chloro-5-isoquinolinesulfonyl)piperidine]: the inhibition in vivo at 3000 µM lay in the range of 10 to 20%. In the case of `O=C(CCn1ccnc1)N[C@H]1CCN(S(=O)(=O)c2cccc3cncc(Cl)c23)C1` [Example 81, (S)-3-[3-(1H-Imidazol-1-yl)propionyl]amino-1-(4-chloro-5-isoquinolinesulfonyl)pyrrolidine] it was 10 to 20%; in that of `COCC(=O)N[C@H]1CCN(S(=O)(=O)c2cccc3c(O)ncc(Cl)c23)C1` [Example 68-1, (S)-3-(2-Methoxyacetyl)amino-1-(1-hydroxy-4-chloro-5-isoquinolinesulfonyl)pyrrolidine], 5 to 10%; in that of `O=C(CCO)N[C@H]1CCN(S(=O)(=O)c2cccc3cncc(Cl)c23)C1` [Example 75, (S)-3-(3-Hydroxypropionyl)amino-1-(4-chloro-5-isoquinolinesulfonyl)pyrrolidine], 10 to 20%. For `COCC(COC)OCC(=O)N[C@H]1CCN(S(=O)(=O)c2cccc3cncc(Cl)c23)C1` [Example 108, (S)-3-[2-(1,3-Dimethoxypropan-2-yloxy)acetyl]amino-1-(4-chloro-5-isoquinolinesulfonyl)pyrrolidine] the value was not below 20%; for `Cc1cncc2cccc(S(=O)(=O)N3CC[C@H](NC(=O)CN(C)C)C3)c12` [Example 72, (S)-3-[2-(Dimethylamino)acetyl]amino-1-(4-methyl-5-isoquinolinesulfonyl)pyrrolidine], 10 to 20%. In the case of `CC(=O)N[C@H]1CCN(S(=O)(=O)c2cccc3cncc(Cl)c23)C1` [Example 49-1, (S)-3-(Acetylamino)-1-(4-chloro-5-isoquinolinesulfonyl)pyrrolidine] it was 10 to 20%.

Consider `CN(C)CCC(=O)N[C@H]1CCN(S(=O)(=O)c2cccc3cncc(Cl)c23)C1` [Example 78, (S)-3-[3-(Dimethylamino)propionyl]amino-1-(4-chloro-5-isoquinolinesulfonyl)pyrrolidine], for which the inhibition in vivo at 3000 µM was 10 to 20%. In the case of `CN(C)CC(=O)N[C@H]1CCN(S(=O)(=O)c2cccc3cncc(F)c23)C1` [Example 117, (S)-3-[(2-Dimethylamino)acetyl]amino-1-(4-fluoro-5-isoquinolinesulfonyl)pyrrolidine] it was 5 to 10%.

Take `CSCCC(=O)N[C@H]1CCN(S(=O)(=O)c2cccc3cncc(Cl)c23)C1` [Example 79, (S)-3-[3-(Methylthio)propionyl]amino-1-(4-chloro-5-isoquinolinesulfonyl)pyrrolidine]: the inhibition in vivo at 3000 µM lay within 10 to 20%.

For `O=C(CCn1cnnn1)N[C@H]1CCN(S(=O)(=O)c2cccc3cncc(Cl)c23)C1` [Example 82, (S)-3-[3-(1H-Tetrazol-1-yl)propionyl]amino-1-(4-chloro-5-isoquinolinesulfonyl)pyrrolidine], the inhibition in vivo at 3000 µM lay within 5 to 10%. For `O=C(CO)N[C@H]1CCN(S(=O)(=O)c2cccc3cncc(Cl)c23)C1` [Example 74, (S)-3-(2-Hydroxyacetyl)amino-1-(4-chloro-5-isoquinolinesulfonyl)pyrrolidine] the value was 10 to 20%. As for `COCC(=O)N(C)[C@H]1CCN(S(=O)(=O)c2cccc3cncc(F)c23)C1` [Example 116, (S)-3-[N-(2-Methoxyacetyl)-N-methyl]amino-1-(4-fluoro-5-isoquinolinesulfonyl)pyrrolidine], the inhibition in vivo at 3000 µM lay in the range of 10 to 20%. For `O=C(CN1CCOC1=O)N[C@H]1CCN(S(=O)(=O)c2cccc3cncc(Cl)c23)C1` [Example 93, (S)-3-[2-(2-Oxooxazolidin-3-yl)acetyl]amino-1-(4-chloro-5-isoquinolinesulfonyl)pyrrolidine] the value was 10 to 20%.
